Data taken from patent US20120136416A1, “Caged Neuropeptides: modulation and measurement of synapse and signaling activity; and methods for drug evaluation, pharmaceuticals preparation and treatment” (PRESIDENT AND FELLOWS OF HARVARD COLLEGE, priority 2010, published 2012).

Experiments:
[1] = test system: locus coeruleus (LC) neurons; test: Whole-cell recordings from locus coeruleus neurons in acute brain slices, local perfusion or UV uncaging; format: cell-based, rat
[2] = target: human kappa opioid receptors (OPRK1) (Homo sapiens, UniProt P41145); format: cell-based
human kappa opioid receptors (OPRK1), sequence (P41145 whole entry, looked up): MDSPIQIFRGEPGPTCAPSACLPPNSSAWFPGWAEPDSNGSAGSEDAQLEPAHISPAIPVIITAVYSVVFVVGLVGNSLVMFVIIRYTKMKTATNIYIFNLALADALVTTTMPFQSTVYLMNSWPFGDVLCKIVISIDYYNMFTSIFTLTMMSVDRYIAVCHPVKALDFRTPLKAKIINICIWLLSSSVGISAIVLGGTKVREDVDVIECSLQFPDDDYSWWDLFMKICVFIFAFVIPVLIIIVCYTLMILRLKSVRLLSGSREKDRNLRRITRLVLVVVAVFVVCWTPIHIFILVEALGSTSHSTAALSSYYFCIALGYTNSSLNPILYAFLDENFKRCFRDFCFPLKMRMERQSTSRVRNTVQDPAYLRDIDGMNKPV

[3] = test system: CA1 region of the hippocampus; test: Extracellular field potential recordings (population spike) in acute hippocampal slices, UV uncaging; format: cell-based, mice
Protocol: Preliminary electrophysiological evaluation was carried out in transverse hippocampal slices from P15-18 mice and focused on inhibitory neurons, the predominant cells expressing Mu and Delta opioid receptors in the CA1 region. Initial neurophysiological evaluations were carried out in acute hippocampal slices from P24-30 mice. […] Extracellular field potential recordings reveal this as an increase in the population spike (pSpike) amplitude in response to Schaeffer collateral stimulation at 0.1 Hz. […] These experiments confirmed that photolysis in living tissue elicits a physiological response.

Nc1ccncc1 [4-AP]
effect on residual Ba^2+-insensitive outward current [1]: unable to block or occlude

[Ba+2].[Cl-].[Cl-] [Ba^2+, BaCl2]
outward current blocked [1]: 80%

[Cl][Cd][Cl] [Cd^2+, CdCl2]
effect on residual Ba^2+-insensitive outward current [1]: unable to block or occlude

CC(C)C[C@H](NC(=O)[C@H](Cc1ccccc1)NC(=O)CNC(=O)CNC(=O)[C@@H](N)Cc1ccc(O)cc1)C(=O)O [L-Enk, Leu-Enkephalin]
activation of kappa receptors [2]: did not activate

CC1(C)[C@@H](OC(=O)CCC(=O)O)CC[C@]2(C)[C@H]3C(=O)C=C4[C@@H]5C[C@@](C)(C(=O)O)CC[C@]5(C)CC[C@@]4(C)[C@]3(C)CC[C@@H]12 [carbenoxolone]
effect on responses to the uncaging stimuli ([1]; 100 uM, n=10 cells): not significantly attenuated

C=CCN1CC[C@]23c4c5ccc(O)c4O[C@H]2C(=O)CC[C@@]3(O)[C@H]1C5 [naloxone]
effect on light-evoked outward current ([1]; 2 μM, uncaging of 10 μM CYLE): blocked | effect on light-evoked pSpike increases [3]: blocked

ZD7288
effect on residual Ba^2+-insensitive outward current [1]: unable to block or occlude
